Laboratory results taken from patent US11999727B2 (Tango Therapeutics, Inc., priority 2020, dated 2024).
Like-named read-outs stand apart in the source and are kept apart here.

What was measured:
PRMT5 [1] = molecular target: T1, PRMT5 (Homo sapiens, UniProt O14744); assay: PRMT5 biochemical IC50 assay with no cofactor; conditions: PRMT5, no cofactor; read-out: No Cofactor/rel IC50
T1 construct: purchased Viva (custom protein)
From the text: Table 1 indicates IC50 values (μM) against PRMT5 for exemplary compounds in the presence of SAM as cofactor, with no cofactor, and with MTA as cofactor, respectively (columns 4-6). […] Ki values can be calculated from the IC50 values as described in the Examples section. As detailed in the Examples section, for the assay performed in the presence of SAM, IC50=Ki×1.5 (Ki=IC50/1.5).

[2] = tested on: HAP1 MTAP-intact cell line; assay: SDMA in-cell western assay, HAP1 MTAP-intact; type: cell-based; conditions: Homo sapiens, HAP1, SDMA in-cell western, HAP1 MTAP-intact; read-out: MTAP HAP1 intact IC50
In short: (§1)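 Isogenic HAP1 pair: the MTAP-intact line expresses endogenous MTAP, and the deleted line is MTAP-null. Symmetric dimethylarginine was detected by in-cell western and IC50 values derived for each line.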

PRMT5 [3] = molecular target: T1, PRMT5; assay: PRMT5 biochemical IC50 assay with SAM as cofactor; conditions: PRMT5, SAM as cofactor; read-out: SAM IC50
PRMT5 [4] = molecular target: T1, PRMT5; assay: PRMT5 biochemical IC50 assay with MTA as cofactor; conditions: PRMT5, MTA as cofactor; read-out: MTA IC50
[5] = tested on: HAP1 MTAP-deleted cell line; assay: SDMA in-cell western assay, HAP1 MTAP-deleted; type: cell-based; conditions: for IC50: HAP1 MTAP-deleted
In short: as §1

[6] = Homo sapiens, HAP1, SDMA in-cell western, read-out: HAP1 MTAP deleted IC50
[7] = IC50 ratio HAP1 MTAP-intact / HAP1 MTAP-deleted, SDMA in-cell western
[8] = Homo sapiens, HAP1, SDMA in-cell western, read-out: HAP 1 MTAP deleted IC50
[9] = IC50 ratio HAP1 MTAP-intact vs HAP1 MTAP-deleted, SDMA in-cell western

T1 sequence (O14744 whole entry): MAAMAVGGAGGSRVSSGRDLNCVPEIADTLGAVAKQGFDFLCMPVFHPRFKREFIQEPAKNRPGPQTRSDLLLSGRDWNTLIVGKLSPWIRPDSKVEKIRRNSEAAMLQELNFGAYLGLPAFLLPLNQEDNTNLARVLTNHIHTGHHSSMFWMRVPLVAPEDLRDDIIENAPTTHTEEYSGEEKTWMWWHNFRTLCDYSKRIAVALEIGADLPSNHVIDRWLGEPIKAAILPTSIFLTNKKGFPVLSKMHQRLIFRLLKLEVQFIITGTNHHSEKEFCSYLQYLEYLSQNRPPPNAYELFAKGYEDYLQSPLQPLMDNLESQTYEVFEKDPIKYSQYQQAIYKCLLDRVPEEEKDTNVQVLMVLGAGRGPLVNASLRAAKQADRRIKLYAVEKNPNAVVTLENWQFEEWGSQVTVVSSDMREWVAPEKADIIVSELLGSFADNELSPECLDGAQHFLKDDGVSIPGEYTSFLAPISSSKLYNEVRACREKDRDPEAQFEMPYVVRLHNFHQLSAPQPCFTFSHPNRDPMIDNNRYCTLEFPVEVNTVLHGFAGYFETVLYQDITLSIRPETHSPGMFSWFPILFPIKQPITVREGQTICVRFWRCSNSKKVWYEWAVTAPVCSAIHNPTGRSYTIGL
T1 sequence (Q9BQA1 whole entry partner): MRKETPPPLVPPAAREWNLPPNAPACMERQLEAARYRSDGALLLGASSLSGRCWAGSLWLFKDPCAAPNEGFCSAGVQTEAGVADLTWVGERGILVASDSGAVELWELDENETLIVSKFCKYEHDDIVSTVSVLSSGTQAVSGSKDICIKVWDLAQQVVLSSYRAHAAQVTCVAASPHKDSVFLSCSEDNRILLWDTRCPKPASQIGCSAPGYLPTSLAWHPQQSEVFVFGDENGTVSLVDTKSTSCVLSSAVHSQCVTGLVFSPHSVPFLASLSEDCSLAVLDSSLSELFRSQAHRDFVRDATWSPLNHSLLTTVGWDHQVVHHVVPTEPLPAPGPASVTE

IC50 (PRMT5 [1]) | IC50 [2] | IC50 (PRMT5 [3]) | IC50 (PRMT5 [4]) | IC50 [5, 6] | IC50 [5, 8] | IC50 ([5]; SDMA in-cell western, read-out: HAP1 MTAP deleted IC50) | SMILES | MTAP intact/deleted ratio [5, 7] | MTAP intact/deleted ratio [5, 9]
> 500 nM | > 1000 nM | > 500 nM | 50 to 500 nM | > 1000 nM | – | – | Cc1cc(NC(=O)C(=O)N2C[C@H](C)CC[C@H]2C2CCCN(C)C2)cnc1N (mixture of isomers) [Compound 832, N-(6-amino-5-methyl-3-pyridyl)-2-[(2R,5S)-5-methyl-2-(1-methyl-3-piperidyl)-1-piperidyl]-2-oxo-acetamide] | C (an IC50 ratio of less than 3 fold) | –
> 500 nM | > 1000 nM | > 500 nM | > 500 nM | > 1000 nM | – | – | CC(=O)N1CCC(c2cccc([C@@H]3CC[C@@H](C)CN3C(=O)C(=O)Nc3cnc(N)c(C)c3)c2)CC1 (single isomer, unassigned) [Compound 331] | C (an IC50 ratio of less than 3 fold) | –
> 500 nM | > 1000 nM | > 500 nM | > 500 nM | > 1000 nM | – | – | CC(=O)N1CCC(c2cccc([C@H]3CC[C@H](C)CN3C(=O)C(=O)Nc3cncc(C(N)=O)c3)c2)CC1 (single isomer, unassigned) [Compound 332] | C (an IC50 ratio of less than 3 fold) | –
> 500 nM | > 1000 nM | > 500 nM | > 500 nM | > 1000 nM | – | – | Cc1cc([C@H]2CC[C@H](C)CN2C(=O)C(=O)Nc2cncc(C(N)=O)c2)cc(C)c1O (single isomer, unassigned) [Compound 326] | C (an IC50 ratio of less than 3 fold) | –
> 500 nM | > 1000 nM | > 500 nM | > 500 nM | – | > 1000 nM | – | COc1ncc(NC(=O)C(=O)N2C[C@H](C)CC[C@H]2c2ccc3nn(C)cc3c2)cc1C(N)=O (single isomer, unassigned) [Compound 1051] | B (an IC50 ratio greater than or equal to 3 fold but lower than 10 fold) | –
> 500 nM | > 1000 nM | > 500 nM | > 500 nM | – | – | > 1000 nM | COc1ncc(NC(=O)C(=O)N2CCCCC2C2CCCCC2)cc1C(N)=O (single isomer, unassigned) [Compound 317, 5-(2-(2-cyclohexylpiperidin-1-yl)-2-oxoacetamido)-2-methoxynicotinamide] | C (an IC50 ratio of less than 3 fold) | –
> 500 nM | > 1000 nM | > 500 nM | 50 to 500 nM | – | 100 to 1000 nM | – | Cc1cc(NC(=O)C(=O)N2C[C@@H](C)CC[C@H]2C23CC(C(N)=O)(C2)C3)cnc1N (single isomer, unassigned) [Compound 1053] | A (an IC50 ratio greater than or equal to 10 fold) | –
50 to 500 nM | 100 to 1000 nM | 50 to 500 nM | < 50 nM | – | 100 to 1000 nM | – | Cc1cc(NC(=O)C(=O)N2C[C@H](C)CC[C@H]2c2ccc(CC(F)(F)F)cc2)cnc1N (racemic) [Compound 1056] | C (an IC50 ratio of less than 3 fold) | –
50 to 500 nM | > 1000 nM | 50 to 500 nM | < 50 nM | > 1000 nM | – | – | Cc1cc(NC(=O)C(=O)N2C[C@@H](C)CC[C@@H]2c2cc[nH]n2)cnc1N (single isomer, unassigned) [Compound 1071] | – | C (an IC50 ratio of less than 3 fold)
50 to 500 nM | > 1000 nM | 50 to 500 nM | < 50 nM | < 100 nM | – | – | COc1ncc(NC(=O)C(=O)N2C[C@H](C)C(F)(F)C[C@H]2c2ccc(F)cc2)cc1C(N)=O (single isomer, unassigned) [Compound 1068] | – | A (an IC50 ratio greater than or equal to 10 fold)
> 500 nM | > 1000 nM | > 500 nM | > 500 nM | > 1000 nM | – | – | Cc1cc(NC(=O)C(=O)N2C[C@H](C)C[C@H](C)[C@H]2c2ccccc2)cnc1N (single isomer, unassigned) [Compound 343] | C (an IC50 ratio of less than 3 fold) | –
